In brackets after ≈: the same amount, converted by molar mass.
Assays:
[1] = system: streptococcus pneumoniae18; assay: MIC against the infecting test organism; format: cell-based, streptococcus pneumoniae; conditions: read-out: MIC
staphylococcus aureus16 = assay: MIC against the infecting test organism; format: cell-based, staphylococcus aureus; conditions: read-out: MIC
[2] = system: streptococcus pneumoniae3; assay: MIC against the infecting test organism; format: cell-based, streptococcus pneumoniae; conditions: read-out: MIC
staphylococcus aureus76 = assay: MIC against the infecting test organism; format: cell-based, staphylococcus aureus; conditions: read-out: MIC
[3] = Acute toxicity on mice via oral administration; conditions: 4000 mg/kg
Experimental: (§1) Both mice and rats take drugs orally (levoisovalerylspiramycin I, II and III prepared in Embodiment 1)
After observing the mice and rats for two days before test, and those without abnormal conditions is carried out test. Don't give anything to eat to mice and rats overnight before test. […] In this test, feed drugs to mice and rats respectively as per 4000 mg/kg, wherein, mice follow 100 mg/ml, with intragastric administration capacity of 0.6-0.8 ml per one, while rats 173 mg/ml, with intragastric administration capacity of 0.8˜1.0 ml/50 g. Observe those taking drugs for one week for toxic reaction and death.

[4] = system: adult acute respiratory infections caused by sensitive bacteria; assay: Clinical test versus Azithromycin, multi-center random double blind; format: in vivo; conditions: patients 18 to 65 years
Experimental: Adopt a multi-center, random, two blind, double simulation control test, which is carried out in 5 hospitals concurrently according to the unified clinical testing program.
1. Patients from 18 to 65 years old (men and women);
2. Sensitive acute respiratory infections caused by sensitive bacteria include acute bacterial pharyngitis, acute suppurative tonsillitis, acute tracheobronchitis, mild pneumonia and acute nasosinusitis etc;
3. Any subject shall sign an informed consent before being selected.
4. All subjects shall be contracepted in the research period and within at least 3 months upon being dosed.
1. Those with hepatic or renal insufficiency (Blood Cr>1.5 mg/dl and ALT>normal upper limit)
2. The women in pregnancy or lactation
3. Those with gastrointestinal tract diseases, who cannot take drugs orally.
4. Those who take antibacterial within one week before the selection.
According to statistics on the test results by statistics experts, the clinical efficacy (FAS) is: […]

enterococcus32 [5] = assay: MIC against the infecting test organism; format: cell-based, enterococcus; conditions: Enterococcus, read-out: MIC
[6] = system: pyogenic streptococcus 102; assay: Curative effect on mouse with abdominal infection (ED50); format: in vivo; conditions: Streptococcus, 102, 168 h, pyogenic streptococcus 102, challenging dose 7.8 × 10^4 CFU/0.5 ml, deaths in 7 days, Bliss, read-out: ED50
Experimental: (§2) Test method: preparation of infection bacterial liquid: taking out the test bacterial liquid which is kept in a refrigerator at −80[…] to room temperature for about 1 h, then inoculating streptococcus pneumonia, pyogenic streptococcus and enterococcus absorbing 0.1 ml bacterial liquid respectively to 2 ml MH broth (add 10% inactivated horse serum), and inoculating 0.1 ml bacterial liquid of staphylococcus aureus to 2 ml MH broth according to the same method above; putting it in an incubator at 37[…] to be cultivated for 18 h, to obtain original bacterial liquid; diluting the original bacterial liquid with 5% gastric mucin to make animals infected with 100% lethal bacteria, to obtain infection bacterial liquid.
(§3) The clinical route of administration of carrimycin is proposed to be oral administration, thus intragastric administration is adopted in carrimychin test. Levoisovalerylspiramycin I (obtained in Embodiment 1) and of crystalline compound of levoisovalerylspiramycin I (prepared in Embodiment 27) are fed to animals via […].
(§4) After the mice are infected, respectively feed each mouse 0.2 ml via intragastric administration at 0.5 to 6 h, and they have no adverse reaction. Observe the number of deaths in 7 days, and calculate the 50% effective dose (ED50) of each drug for the infected mouse and compare the protective effect of drugs by Bliss program.

[7] = system: pyogenic streptococcus 772; assay: as above; format: in vivo; conditions: Streptococcus, 772, 168 h, pyogenic streptococcus 772, challenging dose 6.9 × 10^3 CFU/0.5 ml, deaths in 7 days, Bliss, read-out: ED50
Experimental: as §2, §3, §4

[8] = system: pyogenic streptococcus 119; assay: as above; format: in vivo; conditions: Streptococcus, 119, 168 h, pyogenic streptococcus 119, challenging dose 4.9 × 10^4 CFU/0.5 ml, deaths in 7 days, Bliss, read-out: ED50
Experimental: as §2, §3, §4

[9] = system: hemophilus influenzae (37); assay: Clinical isolates, agar double dilution method; format: cell-based; conditions: 37 clinical isolates of hemophilus influenzae; for MIC50 / MIC90: Haemophilus influenzae; for MIC50: read-out: MIC50; for MIC90: read-out: MIC90
[10] = system: pyogenic streptococcus 772; assay: MIC against the infecting test organism; format: cell-based; conditions: read-out: MIC
staphylococcus aureus12 = assay: MIC against the infecting test organism; format: cell-based, staphylococcus aureus; conditions: read-out: MIC
[11] = system: streptococcus pneumoniae3; assay: Curative effect on mouse with abdominal infection (ED50); format: in vivo, streptococcus pneumoniae; conditions: Streptococcus, 168 h, streptococcus pneumoniae3, challenging dose 6.4 × 10^4 CFU/0.5 ml, deaths in 7 days, Bliss, read-out: ED50
Experimental: as §2, §3, §4

[12] = system: streptococcus pneumoniae57; assay: as above; format: in vivo, streptococcus pneumoniae; conditions: Streptococcus, 168 h, streptococcus pneumoniae57, challenging dose 8.8 × 10^4 CFU/0.5 ml, deaths in 7 days, Bliss, read-out: ED50
Experimental: as §2, §3, §4

[13] = system: streptococcus pneumoniae18; assay: as above; format: in vivo, streptococcus pneumoniae; conditions: Streptococcus, 168 h, streptococcus pneumoniae18, challenging dose 9.6 × 10^4 CFU/0.5 ml, deaths in 7 days, Bliss, read-out: ED50
Experimental: as §2, §3, §4

[14] = system: pyogenic streptococcus 119; assay: MIC against the infecting test organism; format: cell-based; conditions: read-out: MIC
[15] = Acute toxicity on rats via oral administration; conditions: 4500 mg/kg
Experimental: as §1
After observing the mice and rats for two days before test, and those without abnormal conditions is carried out test. Don't give anything to eat to mice and rats overnight before test. […] […] Observe those taking drugs for one week for toxic reaction and death.

[16] = system: pyogenic streptococcus 102; assay: MIC against the infecting test organism; format: cell-based; conditions: read-out: MIC
enterococcus32 [17] = assay: Curative effect on mouse with abdominal infection (ED50); format: in vivo, enterococcus; conditions: Enterococcus, 168 h, enterococcus32, challenging dose 5.4 × 10^4 CFU/0.5 ml, deaths in 7 days, Bliss, read-out: ED50
Experimental: as §2, §3, §4

[18] = system: streptococcus pneumoniae57; assay: MIC against the infecting test organism; format: cell-based, streptococcus pneumoniae; conditions: read-out: MIC
enterococcus (106) = assay: Clinical isolates, agar double dilution method; format: cell-based; conditions: 106 clinical isolates of enterococcus; for MIC50: read-out: MIC50; for MIC90: read-out: MIC90

| SMILES | MIC [1] | MIC (staphylococcus aureus16) | MIC [2] | MIC (staphylococcus aureus76) | LD50 at 1 week ([3]; mouse, in vivo, po) | adverse reaction [4] | clearance of pathogens [4] | clinical efficacy (FAS) [4] | MIC (enterococcus32 [5]) | ED50 [6] | ED50 [7] | ED50 [8] | MIC range [9] | MIC50 [9] | MIC90 [9] | MIC [10] | MIC (staphylococcus aureus12) | ED50 [11] | ED50 [12] | ED50 [13] | also measured |
| --- | --- | --- | --- | --- | --- | --- | --- | --- | --- | --- | --- | --- | --- | --- | --- | --- | --- | --- | --- | --- | --- |
| COC1C(O)CC(=O)OC(C)C/C=C/C=C/C(OC2CCC(N(C)C)C(C)O2)C(C)CC(CC=O)C1OC1OC(C)C(OC2CC(C)(O)C(OC(=O)CC(C)C)C(C)O2)C(N(C)C)C1O (centres unmarked) [Levoisovalerylspiramycin I, levoisovalerylspiramycin I] | 0.03 µg/mL (≈ 0.0324 µM) | 0.5 µg/mL (≈ 0.539 µM) | 0.12 µg/mL (≈ 0.129 µM) | 0.5 µg/mL (≈ 0.539 µM) | > 4000 mg/kg | 2.5% | 97.56% | 92.30% | 0.5 µg/mL (≈ 0.539 µM) | 66.4 mg/kg | 26.1 mg/kg | 57.2 mg/kg | 0.03 to 32 µg/mL | 0.12 µg/mL (≈ 0.129 µM) | 1 µg/mL (≈ 1.08 µM) | 0.06 µg/mL (≈ 0.0647 µM) | 1 µg/mL (≈ 1.08 µM) | 9.73 mg/kg | 13.9 mg/kg | 9.51 mg/kg | Mortality rate (%) ([3]; mice, oral): 35%; mortality ([3]; mice, oral, deaths of 20 animals, observed one week): 7; MIC [14]: 0.12 µg/mL (≈ 0.129 µM); LD50 at 1 week ([15]; rat, in vivo, po): > 4500 mg/kg; Mortality rate (%) ([15]; rats, oral): 15%; mortality ([15]; rats, oral, deaths of 20 animals, observed one week): 3; MIC [16]: 0.12 µg/mL (≈ 0.129 µM); ED50 (enterococcus32 [17]): 77.5 mg/kg; MIC [18]: 0.06 µg/mL (≈ 0.0647 µM); MIC50 (enterococcus (106)): 1 µg/mL (≈ 1.08 µM); MIC90 (enterococcus (106)): 32 µg/mL (≈ 34.5 µM) |
| COC1C(OC(C)=O)CC(=O)OC(C)C/C=C/C=C/C(OC2CCC(N(C)C)C(C)O2)C(C)CC(CC=O)C1OC1OC(C)C(OC2CC(C)(O)C(OC(=O)CC(C)C)C(C)O2)C(N(C)C)C1O (centres unmarked) [Levoisovalerylspiramycin II, levoisovalerylspiramycin II] | 0.03 µg/mL (≈ 0.031 µM) | 0.25 µg/mL (≈ 0.258 µM) | 0.12 µg/mL (≈ 0.124 µM) | 0.25 µg/mL (≈ 0.258 µM) | > 4000 mg/kg | 2.5% | 97.56% | 92.30% | 0.25 µg/mL (≈ 0.258 µM) | 63.2 mg/kg | 24.6 mg/kg | 52.8 mg/kg | 0.03 to 32 µg/mL | 0.12 µg/mL (≈ 0.124 µM) | 1 µg/mL (≈ 1.03 µM) | 0.06 µg/mL (≈ 0.0619 µM) | 1 µg/mL (≈ 1.03 µM) | 8.99 mg/kg | 13.1 mg/kg | 8.98 mg/kg | Mortality rate (%) ([3]; mouse, in vivo, po, 1 week): 35%; mortality ([3]; mouse, in vivo, po, 1 week): 7; MIC [14]: 0.12 µg/mL (≈ 0.124 µM); LD50 at 1 week ([15]; rat, in vivo, po): > 4500 mg/kg; Mortality rate (%) ([15]; rat, in vivo, po, 1 week): 15%; mortality ([15]; rat, in vivo, po, 1 week): 3; MIC [16]: 0.12 µg/mL (≈ 0.124 µM); ED50 (enterococcus32 [17]): 70.2 mg/kg; MIC [18]: 0.06 µg/mL (≈ 0.0619 µM); MIC50 (enterococcus (106)): 1 µg/mL (≈ 1.03 µM); MIC90 (enterococcus (106)): 16 µg/mL (≈ 16.5 µM) |
